Data taken from article PMC7391767, “Molecular mechanisms underlying menthol binding and activation of TRPM8 ion channel” (Nature Communications, 2020).
Values joined by “and” are separate entries in the source; they are usually repeats but may differ in a detail not shown here. Equal entries are not always repeated.

Tests used:
Format in all cases: cell-based
Design in all cases: Shifts in ANAP emission, Ave: unit: nm
ANAP-incorporated TRPM8 [1] = target: T1, ANAP-incorporated TRPM8 (Mus musculus, UniProt Q8R4D5, N852X); details: ANAP incorporation site N852
T1 construct: expressed in transfected cells; host or cells: HEK293 cells, co-transfected with the pANAP vector
Method: (§1) As fluorescence emission peak of ANAP shifts to a longer wavelength in more hydrophilic environment, we measured the shift in ANAP emission peak to report conformational changes. Fluorescence properties of ANAP may also be affected by other factors such as temperature and pH[31], so we performed our ANAP experiments always at room temperature (22 ± 1°C). To control for changes in solution pH, we added 3 mM HEPES in ANAP imaging solution to buffer the pH at 7.2. We genetically integrated ANAP into a specific site on TRPM8 with special tRNA and synthetase encoded by pANAP vector (Fig. 5d).
(§2) L-ANAP methyl ester was purchased from AsisChem. pANAP vector was purchased from Addgene. ANAP was incorporated into TRPM8 by introducing a TAG amber stop codon mutation as previously reported. Briefly, after co-transfection of both TRPM8 and pANAP vectors, ANAP was directly added to the culture medium to the final concentration of 20 µM. After 1–2 days, ANAP-containing culture medium was completely changed. Cells were further cultured in ANAP-free medium overnight before experiments.
(§3) ANAP fluorescence was excited by the Ar laser with a 375/28 excitation filter, a T400lp dichroic mirror, and a 435LP emission filter on an inverted fluorescence microscope (Nikon TE2000-U) using a ×40 oil-immersion objective (NA 1.3). Emission spectrum of ANAP was imaged with an Acton SpectraPro 2150i spectrograph in conjunction with an optiMOS CCD camera (Qimaging, USA). We determined the ANAP emission peak value by fitting the emission spectrum with a skewed Gauss distribution in Igor Pro version 6.1 (WaveMatrix), and then the difference in emission peak values measured in the absence and presence of menthol was reported as the shift of ANAP emission.

ANAP-incorporated TRPM8 [2] = target: T2, ANAP-incorporated TRPM8 (Mus musculus, UniProt Q8R4D5, Y808X); details: ANAP incorporation site Y808; average shift, menthol activated vs resting state
T2 construct: expressed in transfected cells; host or cells: HEK293 cells, co-transfected with the pANAP vector
Method: as §1, §2, §3

ANAP-incorporated TRPM8 [3] = target: T3, ANAP-incorporated TRPM8 (Mus musculus, UniProt Q8R4D5, P952X); details: ANAP incorporation site P952; average shift, menthol activated vs resting state
T3 construct: expressed in transfected cells; host or cells: HEK293 cells, co-transfected with the pANAP vector
Method: as §1, §2, §3

ANAP-incorporated TRPM8 [4] = target: T4, ANAP-incorporated TRPM8 (Mus musculus, UniProt Q8R4D5, A875X)
T4 construct: expressed in transfected cells; host or cells: HEK293 cells, co-transfected with the pANAP vector
Method: as §1, §2, §3

ANAP-incorporated TRPM8 [5] = target: T5, ANAP-incorporated TRPM8 (Mus musculus, UniProt Q8R4D5, F847X); details: ANAP incorporation site F847
T5 construct: expressed in transfected cells; host or cells: HEK293 cells, co-transfected with the pANAP vector
Method: as §1, §2, §3

ANAP-incorporated TRPM8 [6] = target: T6, ANAP-incorporated TRPM8 (Mus musculus, UniProt Q8R4D5, D920X)
T6 construct: expressed in transfected cells; host or cells: HEK293 cells, co-transfected with the pANAP vector
Method: as §1, §2, §3

ANAP-incorporated TRPM8 [7] = target: T7, ANAP-incorporated TRPM8 (Mus musculus, UniProt Q8R4D5, S966X); details: ANAP at S966
T7 construct: expressed in transfected cells; host or cells: HEK293 cells, co-transfected with the pANAP vector
Method: as §1, §2, §3

ANAP-incorporated TRPM8 [8] = target: T8, ANAP-incorporated TRPM8 (Mus musculus, UniProt Q8R4D5, I962X); details: ANAP incorporation site I962, menthol activated vs resting state
T8 construct: expressed in transfected cells; host or cells: HEK293 cells, co-transfected with the pANAP vector
Method: as §1, §2, §3

ANAP-incorporated TRPM8 [9] = target: T9, ANAP-incorporated TRPM8 (Mus musculus, UniProt Q8R4D5, D944X); details: ANAP incorporation site D944
T9 construct: expressed in transfected cells; host or cells: HEK293 cells, co-transfected with the pANAP vector
Method: as §1, §2, §3

ANAP-incorporated TRPM8 [10] = target: T10, ANAP-incorporated TRPM8 (Mus musculus, UniProt Q8R4D5, N789X); details: ANAP incorporation site N789; average shift, menthol activated vs resting state
T10 construct: expressed in transfected cells; host or cells: HEK293 cells, co-transfected with the pANAP vector
Method: as §1, §2, §3

ANAP-incorporated TRPM8 [11] = target: T11, ANAP-incorporated TRPM8 (Mus musculus, UniProt Q8R4D5, Y999X); details: ANAP incorporation site Y999; average shift, menthol activated vs resting state
T11 construct: expressed in transfected cells; host or cells: HEK293 cells, co-transfected with the pANAP vector
Method: as §1, §2, §3

ANAP-incorporated TRPM8 [12] = target: T12, ANAP-incorporated TRPM8 (Mus musculus, UniProt Q8R4D5, V791X)
T12 construct: expressed in transfected cells; host or cells: HEK293 cells, co-transfected with the pANAP vector
Method: as §1, §2, §3

ANAP-incorporated TRPM8 [13] = target: T13, ANAP-incorporated TRPM8 (Mus musculus, UniProt Q8R4D5, S819X); details: ANAP incorporation site S819; average shift, menthol activated vs resting state
T13 construct: expressed in transfected cells; host or cells: HEK293 cells, co-transfected with the pANAP vector
Method: as §1, §2, §3

ANAP-incorporated TRPM8 [14] = target: T14, ANAP-incorporated TRPM8 (Mus musculus, UniProt Q8R4D5, Q894X); details: ANAP incorporation site Q894
T14 construct: expressed in transfected cells; host or cells: HEK293 cells, co-transfected with the pANAP vector
Method: as §1, §2, §3

ANAP-incorporated TRPM8 [15] = target: T15, ANAP-incorporated TRPM8 (Mus musculus, UniProt Q8R4D5, C1006X); details: ANAP incorporation site C1006; average shift, menthol activated vs resting state
T15 construct: expressed in transfected cells; host or cells: HEK293 cells, co-transfected with the pANAP vector
Method: as §1, §2, §3

ANAP-incorporated TRPM8 [16] = target: T16, ANAP-incorporated TRPM8 (Mus musculus, UniProt Q8R4D5, W896X); details: ANAP incorporation site W896
T16 construct: expressed in transfected cells; host or cells: HEK293 cells, co-transfected with the pANAP vector
Method: as §1, §2, §3

[17] = average shift, menthol activated vs resting state

**Q.** What does the source list for `CC(C)[C@@H]1CC[C@@H](C)C[C@H]1O` [menthol, (−)-menthol]?
**A.** Shifts_ave (ANAP-incorporated TRPM8 [1]; [17]): 1.13 nm; Shifts in emission (ANAP-incorporated TRPM8 [1]; menthol activated vs resting state, single measurement): 1.32 nm and 1.2 nm and 0.75 nm and 1.07 nm; Emission Peak at menthol activated state (ANAP-incorporated TRPM8 [1]; single measurement): 487.02 nm and 492.63 nm and 483.01 nm and 479.1 nm and 483.68 nm; Shifts_ave (ANAP-incorporated TRPM8 [2]): 1.79 nm; Shifts_ave (ANAP-incorporated TRPM8 [3]): 1.08 nm; Shifts in ANAP emission, Ave (ANAP-incorporated TRPM8 [4]; ANAP at A875): 6.61; shift of ANAP emission peak (ANAP-incorporated TRPM8 [4]; ANAP at A875 site, redshifted, menthol-induced (0.5 mM), n = 5): 6.6 ± 0.4 nm; Shifts_ave (ANAP-incorporated TRPM8 [4]; ANAP incorporation site A875, average shift, menthol activated vs resting state): 6.61 nm; Shifts in emission (ANAP-incorporated TRPM8 [4]; ANAP incorporation site A875, menthol activated vs resting state, single measurement): 6.25 nm and 6.04 nm and 7.45 nm and 7.64 nm and 5.66 nm; Emission Peak at menthol activated state (ANAP-incorporated TRPM8 [4]; ANAP incorporation site A875, single measurement): 495.85 nm and 493.43 nm and 494.62 nm and 492.72 nm and 492.66 nm; Shifts_ave (ANAP-incorporated TRPM8 [5]; [17]): -1.40 nm; Emission Peak at menthol activated state (ANAP-incorporated TRPM8 [5]; single measurement): 476.81 nm and 476.91 nm and 474.92 nm and 474.75 nm and 473.64 nm; Shifts in ANAP emission, Ave (ANAP-incorporated TRPM8 [6]; ANAP at D920): 3.47; Shifts_ave (ANAP-incorporated TRPM8 [6]; ANAP incorporation site D920, average shift, menthol activated vs resting state): 3.47 nm; Emission Peak at menthol activated state (ANAP-incorporated TRPM8 [6]; ANAP incorporation site D920, single measurement): 488.12 nm and 482.56 nm; Shifts in ANAP emission, Ave (ANAP-incorporated TRPM8 [7]): 2.10; Shifts_ave (ANAP-incorporated TRPM8 [8]; average shift): 1.07 nm; Shifts in emission (ANAP-incorporated TRPM8 [8]; single measurement): 1.34 nm and 1.4 nm and 0.73 nm and 0.79 nm; Shifts_ave (ANAP-incorporated TRPM8 [9]; [17]): -0.0133 nm; Emission Peak at menthol activated state (ANAP-incorporated TRPM8 [9]; single measurement): 482.52 nm and 471.8 nm and 476.65 nm and 473.2 nm and 484.21 nm and 484.16 nm; Shifts_ave (ANAP-incorporated TRPM8 [10]): 0.79 nm; Shifts_ave (ANAP-incorporated TRPM8 [11]): 0.79 nm; Shifts in ANAP emission, Ave (ANAP-incorporated TRPM8 [12]; ANAP at V791): 2.05; Shifts_ave (ANAP-incorporated TRPM8 [12]; ANAP incorporation site V791, average shift, menthol activated vs resting state): 2.05 nm; Shifts_ave (ANAP-incorporated TRPM8 [13]): 0.65 nm; Shifts_ave (ANAP-incorporated TRPM8 [14]; [17]): 1.82 nm; Emission Peak at menthol activated state (ANAP-incorporated TRPM8 [14]; single measurement): 487.18 nm and 484.04 nm and 488.11 nm and 490.92 nm and 483.4 nm; Shifts_ave (ANAP-incorporated TRPM8 [15]): 1.09 nm; Shifts_ave (ANAP-incorporated TRPM8 [16]; [17]): -1.22 nm; Emission Peak at menthol activated state (ANAP-incorporated TRPM8 [16]; single measurement): 474.04 nm and 481.17 nm and 479.96 nm and 475.43 nm
